Experiment [1] has as its target Sodium-dependent dopamine transporter (Homo sapiens) (UniProt Q01959). Put plainly: Displacement of dopamine by the compound against dopamine transporter was determined at 1000 nM.
The nature of experiment [2]: Inhibitory constant determined against Norepinephrine transporter.
For experiment [3], the target named is Sodium-dependent serotonin transporter (Homo sapiens) (UniProt P31645). In words: Displacement of serotonin by the compound against serotonin transporter was determined.
The nature of experiment [4]: Inhibitory constant against Dopamine transporter.
Experiment [5] can be described thus: Inhibitory constant against Serotonin transporter.

Where only a bound is given, the exact number is not on record here.

Sodium-dependent dopamine transporter (Homo sapiens), sequence (Q01959 whole entry): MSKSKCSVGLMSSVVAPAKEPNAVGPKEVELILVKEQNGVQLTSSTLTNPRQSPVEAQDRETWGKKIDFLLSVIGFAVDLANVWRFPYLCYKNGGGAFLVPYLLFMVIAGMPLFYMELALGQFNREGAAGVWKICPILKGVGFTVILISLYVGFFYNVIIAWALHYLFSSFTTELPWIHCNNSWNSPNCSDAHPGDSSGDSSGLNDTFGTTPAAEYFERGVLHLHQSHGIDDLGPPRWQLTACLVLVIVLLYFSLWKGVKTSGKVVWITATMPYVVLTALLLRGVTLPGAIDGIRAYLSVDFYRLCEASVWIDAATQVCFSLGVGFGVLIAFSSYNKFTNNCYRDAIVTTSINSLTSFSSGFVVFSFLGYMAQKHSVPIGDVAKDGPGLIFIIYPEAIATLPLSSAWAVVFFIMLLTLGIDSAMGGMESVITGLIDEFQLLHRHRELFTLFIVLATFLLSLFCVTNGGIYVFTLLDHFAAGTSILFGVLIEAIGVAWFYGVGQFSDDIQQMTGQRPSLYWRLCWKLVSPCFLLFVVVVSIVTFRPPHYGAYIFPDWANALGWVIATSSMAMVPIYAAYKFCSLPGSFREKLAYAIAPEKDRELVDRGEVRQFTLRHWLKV
Sodium-dependent serotonin transporter (Homo sapiens), sequence (P31645 whole entry, looked up): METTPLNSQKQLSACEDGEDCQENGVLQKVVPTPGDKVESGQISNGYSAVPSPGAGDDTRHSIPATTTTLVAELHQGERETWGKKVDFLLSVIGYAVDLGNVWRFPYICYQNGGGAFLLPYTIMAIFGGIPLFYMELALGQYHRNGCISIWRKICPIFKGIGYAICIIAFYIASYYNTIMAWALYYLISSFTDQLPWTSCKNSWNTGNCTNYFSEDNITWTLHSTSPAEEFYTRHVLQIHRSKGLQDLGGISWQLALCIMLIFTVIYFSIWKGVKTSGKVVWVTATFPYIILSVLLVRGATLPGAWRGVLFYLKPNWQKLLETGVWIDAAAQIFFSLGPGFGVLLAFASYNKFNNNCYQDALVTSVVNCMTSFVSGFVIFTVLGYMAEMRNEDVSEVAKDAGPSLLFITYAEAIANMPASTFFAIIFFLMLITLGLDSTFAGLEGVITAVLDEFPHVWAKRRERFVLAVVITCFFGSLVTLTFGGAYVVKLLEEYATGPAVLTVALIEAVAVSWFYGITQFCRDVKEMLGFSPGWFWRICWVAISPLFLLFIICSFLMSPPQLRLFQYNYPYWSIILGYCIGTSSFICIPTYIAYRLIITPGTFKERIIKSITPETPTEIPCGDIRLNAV

A word on the Ki: it is a measure of affinity in units of concentration, obtained from inhibition or displacement. High values mean weaker binding, low ones tighter binding. As to `Cc1ccc(S[C@@H](c2ccccc2)[C@@H]2CNCCO2)cc1`, the values for the Ki in experiment [1], in experiment [2] and in experiment [3] were over 200 nM, 364 nM and over 100 nM, respectively.

`CCOc1ccccc1O[C@@H](c1ccccc1)[C@@H]1CNCCO1`: the Ki in experiment [1] is over 200 nM; in experiment [3] it was over 100 nM.

Take `c1ccc(S[C@@H](c2ccccc2)[C@@H]2CNCCO2)cc1`: the figures for the Ki in experiment [2], in experiment [4] and in experiment [5] were 17.6 nM, 522 nM and 36 nM, respectively.

In the case of `COc1ccccc1S[C@@H](c1ccccc1)[C@@H]1CNCCO1` (stereo in doubt; 14) [listing 1 of 2 here], the Ki in experiment [2] was 10.7 nM; in experiment [5], 1.2 nM.

With `Cc1ccccc1S[C@@H](c1ccccc1)[C@@H]1CNCCO1`, the figures for the inhibitory constant (Ki) in experiment [2], in experiment [4] and in experiment [5] were 8.3 nM, 227 nM and 0.2 nM, respectively.

The compound `COc1ccccc1S[C@@H](c1ccccc1)[C@@H]1CNCCO1` (stereo in doubt; form 1) [listing 1 of 2 here] returned an inhibitory constant (Ki) in experiment [1] of over 200 nM.

For `COc1ccccc1S[C@@H](c1ccccc1)[C@@H]1CNCCO1` (stereo in doubt; form 1) [listing 2 of 2 here], the inhibition constant Ki in experiment [2] is 1.7 nM; in experiment [5], 66.2 nM.

In experiment [1], `COc1ccccc1S[C@@H](c1ccccc1)[C@@H]1CNCCO1` (stereo in doubt; form 2) [listing 1 of 2 here] showed an inhibition constant Ki of over 200 nM.

As to `COc1ccccc1S[C@@H](c1ccccc1)[C@@H]1CNCCO1` (stereo in doubt; 14) [listing 2 of 2 here], the Ki in experiment [1] was over 200 nM.

With `COc1ccccc1S[C@@H](c1ccccc1)[C@@H]1CNCCO1` (stereo in doubt; form 2) [listing 2 of 2 here], the Ki in experiment [2] worked out at 24.6 nM; in experiment [5], 1.5 nM.

Turning to `Cc1cccc(S[C@@H](c2ccccc2)[C@@H]2CNCCO2)c1`, the values for the inhibitory constant (Ki) in experiment [1], in experiment [2] and in experiment [5] were over 200 nM, 109 nM and 3.2 nM, respectively.

Source of the values: ChEMBL document CHEMBL1144290, “Discovery and structure-activity relationships of novel selective norepinephrine and dual serotonin/norepinephrine reuptake inhibitors” (Bioorg Med Chem Lett, 2005).
